Read-outs that look alike come from different tables or passages of the source.
Columns and labels:
[1] = system: C. elegans; assay: C. elegans dose-response (viability, minimum lethal concentration); format: in vivo, Caenorhabditis elegans
Method: Forty microliters of an HB101 E. coli bacterial suspension in liquid NGM (nematode growth media—see ref. 42 for the recipe) was added to each well of a 96-well flat-bottom culture plate, after which approximately 25 synchronized L1 worms, in 10 μl of M9 buffer (see ref. 43 for the recipe), were added to each well. The synchronized L1 worms were obtained from an embryo preparation performed the previous day (see ref. 43 for the protocol). For the L1 assays, 0.5 μl of test compound solution (or DMSO alone) was immediately added to the wells using a multichannel pipette; the final DMSO concentration is 1% (v/v). The worms were incubated for 3 days at 20° C. and the number of viable animals was counted.
At least three biological replicates were performed for each dose-response assay. For each biological replicate, two technical replicates were performed and the numbers of viable animals for each technical replicate were combined (i.e. ˜ 50 worms assayed per concentration). The number of viable worms at each concentration was divided by the corresponding DMSO control value to give the “relative viability” for each concentration. The “relative viability” values were then averaged across the biological replicates. Minimum lethal concentration was defined as the lowest concentration at which at least 20% of worms die.

[2] = system: M. incognita J2 larvae; assay: Meloidogyne incognita in vitro larval mobility assay; format: in vivo; details: 45 μM, 4 days; for Replicate 1 z-score / Replicate 2 z-score: z-score vs untreated DMSO wells; for pest or weed control at 45 µM: Meloidogyne incognita, 96 h
Procedure, shortened: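 Infective J2 juveniles of M. incognita Race 1, about 35 per well, were exposed to compound at 45 μM in deionized water with 0.5% DMSO for 4 days at 25° C without shaking. Immobile worms were counted as % of total, averaged over two replicates. A z-score against DMSO control wells was also computed, with z > 1.645 in both replicates marking a hit.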

[3] = system: M. chitwoodi J2 larvae; assay: Meloidogyne chitwoodi in vitro larval mobility assay; format: in vivo; details: 2 days, average of three replicates; for pest or weed control at 45 µM: Meloidogyne chitwoodi, 48 h, read-out: % Immobile
Method: M. chitwoodi race 1 (the strain commonly found in the pacific northwest of the United States) was used for all experiments, and was maintained on tomato plants (Solanum lycopersicum ‘Rutgers’) as previously described^47. The microwell dose-response experiments were carried out similarly to previously described protocols^44,46. […] The chemicals were tested at 45 μM, and the final concentration of DMSO in each well was 0.5% (v/v). The wells were covered with a plastic adhesive strip, and the lids of the plates were sealed with parafilm. The plates were incubated at 25° C. for 2 days. The percent of worms that were immobile (% immobile) was quantified by counting the number of immobile worms after 2 days of incubation, dividing the number of immobile worms by the total number of worms in the well, and then multiplying by 100. […] The average % immobile value was calculated across the three replicates.

[4] = system: M. hapla eggs; assay: Meloidogyne hapla in vitro egg hatch assay; format: in vivo; details: 45 μM; for Number of Hatched Eggs: 8 days at room temperature, about 90 eggs per well, tested once; for Number of Hatched Eggs z-score: 8 days, z-score vs 8 untreated DMSO wells
Procedure, shortened: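 About 90 eggs per well, freed from carrot-root egg masses with 10% bleach for 4 min, were exposed in deionized water to 0.5 μL compound or DMSO. Hatched eggs were counted after 8 days at room temperature without shaking in humid conditions. Each treatment was tested once, with z-scores calculated from 8 untreated DMSO control wells.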

[5] = system: M. chitwoodi; assay: Meloidogyne chitwoodi infectivity assay (soil, tomato roots); format: in vivo; details: 45 μM in soil, 8 weeks, egg counts relative to DMSO control
Method: M. chitwoodi race 1 (the strain commonly found in the pacific northwest of the United States) was used for all experiments, and was maintained on tomato plants (Solanum lycopersicum ‘Rutgers’) as previously described^47. The M. chitwoodi infectivity assays were performed identically to the M. incognita infectivity assays (see above), with the exception that egg counts were not normalized to the mass of the roots. Four technical replicates were performed in a single batch.

[6] = system: M. incognita; assay: Meloidogyne incognita infectivity assay (soil, tomato roots); format: in vivo; details: 45 μM in soil, 8 weeks, eggs per mg root relative to DMSO control; for pest or weed control at 45 µM: Meloidogyne incognita, 1344 h, read-out: % effectiveness at inhibiting reproduction of M. incognita
Description: An M. incognita population originally collected from grape (Vitis vinifera) in Parlier, California, was used for all experiments, and they were maintained on tomato plants (Solanum lycopersicum ‘Rutgers’) as previously described^47. Infective J2 juveniles were collected as described in ref. 47.

[7] = system: tomato plants; assay: Root mass of tomato plants in the soil infectivity assay; details: 45 μM in soil, 8 weeks
Method: For the infectivity assays, 90 grams of soil (1:1 sand:loam mix) was added to each cell of several 6-cell plastic garden packs. The soil was drenched with 18 mL of deionized water containing dissolved test compound or DMSO alone. 2,500 infective J2 juveniles were then added to the soil in 2 mL of deionized water, for a total water volume of 20 mL. […] The DMSO concentration varied from 0.1% to 0.8% (v/v) depending on the stock concentration of the test compound. The highest DMSO concentration was used as the DMSO control. The J2s were incubated in the soil and chemical for 24 hours, after which two- to three-week old tomato seedlings were transplanted into the soil (one plant per cell). Two replicates were performed for each chemical treatment, and four replicates were done for the DMSO controls. The whole experiment was replicated twice, in two different batches on two different days, for a total of four replicates for each test compound treatment, and eight replicates for the DMSO controls. Inoculated plants were grown for 8 weeks in a greenhouse, as described^47, under long-day conditions (16-h photoperiod) with 26/18° C. day/night temperatures. After 8 weeks, the plants were destructively harvested. The tops were removed and discarded, and roots were gently washed with water to remove adhering soil. Eggs were extracted by placing rinsed roots in 0.6% sodium hypochlorite and agitating at 300 rpm for 3 min. Roots were then rinsed over nested 250—and 25.4-μm sieves, with eggs collected from the latter and suspended in water. Roots were dried in a 65° C. oven for at least 24 hours, after which dry roots were weighed. The number of eggs from each plant root was counted on a dissection microscope using a haemocytometer, and the number of eggs per milligram of root was calculated by dividing the total egg number by the mass of the dried root material. An average was taken across the replicates performed on the same day, and then normalized to the DMSO control average. […] An average percent effectiveness value was then calculated across the two different batches carried out on different days.

[8] = system: HepG2 cells; assay: HepG2 cell proliferation assay; format: cell-based, human
Method: HepG2 cells, which are liver-derived, were counted using a haemocytometer, diluted, and seeded in […] to a final density of 5×10^4 cells/mL in 100 uL of RPMI-1640 medium supplemented with 10% heat inactivated fetal bovine serum (Gibco) and 1.2× Antibiotic-Antimycotic (Gibco). Cells were incubated at 37° C. with 5% CO2 for 24 hours. Subsequently, a 2-fold dilution series of test compound was added to cells at a final volume of 200 uL and incubated at 37° C. with 5% CO2 for 72 hours. After 72 hours, Alamar Blue (Invitrogen) was added to the Hep G2 cells at a final concentration of 0.5× and plates were incubated at 37° C. for 4 hours. Fluorescence was measured at Ex560 nm/Em590 nm and corrected for background from the medium. All assays were performed in technical triplicates and in at least two biological replicates. The IC50 value was defined as the concentration that inhibits cell proliferation by 50% of the untreated control cells.

[9] = Zebrafish dose-response experiments; format: in vivo, Danio rerio; details: TLAB (wild-type), zebrafish (Danio rerio), in vivo; bound inferred from the tested concentrations, 3 days exposure
Method: (§1) Zebrafish were maintained and handled under the guidance and approval of the Canadian Council on Animal Care and the Hospital for Sick Children Laboratory Animal Services. Dose-response assays were performed using zebrafish (Danio rerio) at 3 days post-fertilization. Three wild-type (TLAB) embryos were analyzed in each well of a 24-well plate containing 1 mL of E3 medium (5 mM NaCl, 0.17 mM KCl, 0.33 mM CaCl2, 0.33 mM MgSO4). Test compounds were added to each well to reach final concentrations of 45 μM, 15 μM, and 5 μM (0.5% v/v DMSO), as well as a DMSO control well. The viability of the fish was assessed after 3 days of test compound exposure using a Zeiss standard dissection microscope.

[10] = system: Zebrafish; assay: Zebrafish dose-response experiments; format: in vivo, Danio rerio; details: for Zebrafish LC100: lowest concentration at which all of the fish are dead, 45, 15, 5 μM tested
Method: as §1

[11] = Caenorhabditis elegans, 72 h, L1 worms, 3 days at 20° C., lowest concentration at which at least 20% of worms die, read-out: Minimum Lethal Concentration
[12] = Caenorhabditis elegans, 72 h, L1 worms, 3 days at 20° C., same values in ppm, read-out: Minimum Lethal Concentration (ppm)
[13] = average of the two replicates, read-out: Average % Immobile
[14] = replicate 1, read-out: Replicate 1 % Immobile
[15] = replicate 2, read-out: Replicate 2 % Immobile
[16] = 72 hours, Alamar Blue, cell proliferation

SMILES	minimal effective concentration [1, 11] [µM]	minimal effective concentration [1, 12] [µg/mL]	Replicate 1 z-score ([2]; replicate 1)	Replicate 2 z-score ([2]; replicate 2)	pest or weed control at 45 µM [2, 13] [%]	pest or weed control at 45 µM [2, 14] [%]	pest or weed control at 45 µM [2, 15] [%]	pest or weed control at 45 µM [3] [%]	Number of Hatched Eggs [4]	Number of Hatched Eggs z-score [4]	% effectiveness at inhibiting reproduction of M. chitwoodi [5] [%]	pest or weed control at 45 µM [6] [%]	Normalized root mass (relative to DMSO control) [7]	Zebrafish LC100 ([10]; 3 days exposure) [µM]	further results
CCc1ccc(-c2cn3ccsc3n2)cc1 [I-7]	50	11.4	[10.58]	[3.55]	51.9	74.5	29.4	> 75	1	[4.30]	59.3	–	–	–	–
CCc1ccc(-c2cn3cc(C)sc3n2)cc1 [I-10]	6.25	1.5	–	–	–	–	–	–	–	–	63.7	18.5	1.30	–	–
Cc1c(-c2ccc(F)cc2)nc2sccn12 [I-13]	> 100	> 23.2	[2.58]	[2.14]	28.4	35.3	21.6	32.4	–	–	–	0	1.12	–	–
Cc1c(-c2ccc(Br)cc2)nc2sccn12 [I-33]	12.5	3.7	[1.78]	[4.16]	32.1	31.4	32.8	58.1	–	–	–	7.9	1.45	–	–
Clc1ccc(-c2cn3ccsc3n2)nc1 [I-46]	100	23.6	[10.33]	[12.18]	≥ 75	73.2	77.1	56.4	–	–	–	37.7	1.56	>45	IC50 ([8]; Homo sapiens, HepG2, 72 hours, Alamar Blue, cell proliferation): > 100 µM; HepG2 IC50 (ppm) ([8]; approximate ppm equivalent of 100 μM): > 23 ppm; LC50 at 3 days [9]: > 45 µM; lethality to zebrafish ([10]; concentrations up to 45 μM, the highest concentration tested): non-lethal
c1ccc(-c2noc(-c3cccs3)n2)cc1 [tioxazafen, reference compound]	–	–	[14.82]	[21.99]	–	–	–	–	1	[4.30]	–	–	1.09	15	minimal effective concentration ([1]; L1 worms, 3 days at 20° C., lowest concentration at which at least 20% of worms die, read-out: Minimum Lethal Concentration): 3.125 µM; Minimum Lethal Concentration (ppm) ([1]; L1 worms, 3 days at 20° C., same values in ppm): 0.7 ppm; times more potent at killing C. elegans than compound I-46 ([1]; tioxazafen versus compound I-46, minimum lethal concentration): 32; Average % Immobile ([2]; average of the two replicates): 100.00%; Replicate 1 % Immobile ([2]; replicate 1): 100.00%; Replicate 2 % Immobile ([2]; replicate 2): 100.00%; % Immobile ([3]; 45 μM): 42.7%; % effectiveness at inhibiting reproduction of M. incognita [6]: 43.7%; HepG2 IC50 [8, 16]: relatively inactive; IC50 [8, 16]: > 100 µM; LC50 ([10]; bound inferred from the tested concentrations, 3 days exposure): ≤ 15 µM; times more potent at killing fish than compound I-46 ([10]; tioxazafen versus compound I-46, zebrafish): at least 3
